Results published in ChEMBL document CHEMBL1201862, “PubChem BioAssay data set” (2004).
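Compound exposure: 48 hours, 5 concentrations, 96-well plates. GI50 is the concentration that inhibits growth by half.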 The source made the active and inactive calls. Rule as the data show it: active = GI50 up to about 1.1 µM and inactive = higher.

Legend:
Test in all cases: DTP human tumour cell line panel, 48 h
NCI-H23 = tested on: NCI-H23
786-0 = tested on: 786-0
MDA-MB-231 = tested on: MDA-MB-231
NCI-H226 = tested on: NCI-H226
SK-MEL-2 = tested on: SK-MEL-2
SK-OV-3 = tested on: SK-OV-3
HCT-15 = tested on: HCT-15
EKVX = tested on: EKVX
SK-MEL-28 = tested on: SK-MEL-28
OVCAR-3 = tested on: OVCAR-3
MDA-MB-435 = tested on: MDA-MB-435
A549 = tested on: A549
KM12 = tested on: KM12
SF-295 = tested on: SF-295
HT-29 = tested on: HT-29
M14 = tested on: M14
SR = tested on: SR
BT-549 = tested on: BT-549
Malme-3M = tested on: Malme-3M

Q: Which results are given for `N=C(N)SCc1ccc2c(c1)S(=O)(=O)c1ccccc1O2`?
A: GI50 (NCI-H23): 19.1 µM (inactive); GI50 (786-0): 33.6 µM (inactive); GI50 (MDA-MB-231): 39.8 µM (inactive); GI50 (NCI-H226): 16.7 µM (inactive); GI50 (SK-MEL-2): 16.4 µM (inactive); GI50 (SK-OV-3): 20.8 µM (inactive); GI50 (HCT-15): 25.8 µM; GI50 (EKVX): 17 µM (inactive); GI50 (SK-MEL-28): 16.4 µM (inactive); GI50 (OVCAR-3): 17 µM (inactive); GI50 (MDA-MB-435): 15.5 µM (inactive); GI50 (A549): 19 µM (inactive); GI50 (KM12): 16.9 µM (inactive); GI50 (SF-295): 21.2 µM (inactive); GI50 (HT-29): 15.6 µM (inactive); GI50 (M14): 20.5 µM (inactive); GI50 (SR): 23 µM (inactive)

Q: `COc1ccc2c(c1)OC1c3ccccc3OCC21` (configuration not stated) was tested. Which GI50 (NCI-H23) did it give?
A: The GI50 was 61.4 µM (inactive).

Q: What about the GI50 (786-0) of the same compound?
A: The GI50 was > 100 µM (inactive).

Q: What about the GI50 (BT-549) of the same compound?
A: The GI50 was 59.7 µM (inactive).

Q: What about the GI50 (MDA-MB-231) of the same compound?
A: Its GI50 is > 100 µM (inactive).

Q: What about the GI50 (NCI-H226) of the same compound?
A: Its GI50 is 47.1 µM (inactive).

Q: And the GI50 (SK-MEL-2)?
A: Its GI50 is > 100 µM (inactive).

Q: And the GI50 (SK-OV-3)?
A: The GI50 was > 100 µM (inactive).

Q: What about the GI50 (HCT-15) of the same compound?
A: The GI50 was 62.7 µM.

Q: What about the GI50 (EKVX) of the same compound?
A: Its GI50 is 63.7 µM (inactive).

Q: And the GI50 (SK-MEL-28)?
A: The GI50 was > 100 µM (inactive).

Q: What about the GI50 (OVCAR-3) of the same compound?
A: Its GI50 is 72.1 µM (inactive).

Q: What about the GI50 (MDA-MB-435) of the same compound?
A: The GI50 was 30.7 µM (inactive).

Q: And the GI50 (KM12)?
A: Its GI50 is 28.4 µM (inactive).

Q: What about the GI50 (SF-295) of the same compound?
A: Its GI50 is > 100 µM (inactive).

Q: What about the GI50 (HT-29) of the same compound?
A: The GI50 was 25.6 µM (inactive).

Q: And the GI50 (M14)?
A: Its GI50 is 93.5 µM (inactive).

Q: Which results are given for `CCCCCCCCCC1(N=[N+]=[N-])C(=O)c2ccccc2N(C)C1=O` (configuration not stated)?
A: GI50 (Malme-3M): 28.1 µM (inactive); GI50 (NCI-H23): 25.6 µM (inactive); GI50 (786-0): 38.5 µM (inactive); GI50 (BT-549): 28.1 µM (inactive); GI50 (SK-MEL-2): 25.4 µM (inactive); GI50 (SK-OV-3): 25.1 µM (inactive); GI50 (HCT-15): 30.3 µM; GI50 (SK-MEL-28): 28.8 µM (inactive); GI50 (OVCAR-3): 25 µM (inactive); GI50 (MDA-MB-435): 2.58 µM (inactive); GI50 (A549): 25.5 µM (inactive); GI50 (KM12): 48 µM (inactive); GI50 (SF-295): 42.2 µM (inactive); GI50 (HT-29): 30.4 µM (inactive); GI50 (M14): 27 µM (inactive); GI50 (SR): 35.4 µM (inactive)

Q: What does the source list for `CCCCCN1CCN(c2ncccn2)CC1`?
A: GI50 (Malme-3M): > 100 µM (inactive); GI50 (NCI-H23): > 100 µM (inactive); GI50 (786-0): > 100 µM (inactive); GI50 (MDA-MB-231): > 100 µM (inactive); GI50 (SK-MEL-2): > 100 µM (inactive); GI50 (HCT-15): > 100 µM; GI50 (EKVX): > 100 µM (inactive); GI50 (SK-MEL-28): > 100 µM (inactive); GI50 (OVCAR-3): > 100 µM (inactive); GI50 (MDA-MB-435): > 100 µM (inactive); GI50 (A549): > 100 µM (inactive); GI50 (KM12): > 100 µM (inactive); GI50 (SF-295): > 100 µM (inactive); GI50 (HT-29): > 100 µM (inactive); GI50 (M14): > 100 µM (inactive); GI50 (SR): > 100 µM (inactive)

Q: With `O=C1CCC[C@@H]2NC[C@@H](c3ccc4c(c3)OCO4)[C@H]12` as the compound, how does the GI50 (Malme-3M) read?
A: Its GI50 is > 25 µM (inactive).

Q: What about the GI50 (NCI-H23) of the same compound?
A: Its GI50 is > 25 µM (inactive).

Q: What about the GI50 (786-0) of the same compound?
A: Its GI50 is > 25 µM (inactive).

Q: What about the GI50 (MDA-MB-231) of the same compound?
A: Its GI50 is > 25 µM (inactive).

Q: And the GI50 (NCI-H226)?
A: The GI50 was > 25 µM (inactive).

Q: And the GI50 (SK-MEL-2)?
A: The GI50 was > 25 µM (inactive).

Q: What about the GI50 (SK-OV-3) of the same compound?
A: Its GI50 is > 25 µM (inactive).

Q: What about the GI50 (HCT-15) of the same compound?
A: The GI50 was over 25 µM.

Q: And the GI50 (EKVX)?
A: The GI50 was > 25 µM (inactive).

Q: What about the GI50 (SK-MEL-28) of the same compound?
A: Its GI50 is > 25 µM (inactive).

Q: And the GI50 (MDA-MB-435)?
A: Its GI50 is > 25 µM (inactive).

Q: And the GI50 (A549)?
A: Its GI50 is > 25 µM (inactive).

Q: What about the GI50 (KM12) of the same compound?
A: The GI50 was > 25 µM (inactive).

Q: And the GI50 (SF-295)?
A: The GI50 was > 25 µM (inactive).

Q: What about the GI50 (HT-29) of the same compound?
A: The GI50 was > 25 µM (inactive).

Q: What about the GI50 (M14) of the same compound?
A: Its GI50 is > 25 µM (inactive).

Q: What about the GI50 (SR) of the same compound?
A: The GI50 was > 25 µM (inactive).

Q: Which results are given for `O=C(NC1CCCC1=O)c1ccccc1` (configuration not stated)?
A: GI50 (Malme-3M): > 100 µM (inactive); GI50 (NCI-H23): > 100 µM (inactive); GI50 (786-0): > 100 µM (inactive); GI50 (NCI-H226): 98.9 µM (inactive); GI50 (SK-MEL-2): > 100 µM (inactive); GI50 (SK-OV-3): > 100 µM (inactive); GI50 (EKVX): > 100 µM (inactive); GI50 (SK-MEL-28): > 100 µM (inactive); GI50 (OVCAR-3): > 100 µM (inactive); GI50 (A549): > 100 µM (inactive); GI50 (KM12): > 100 µM (inactive); GI50 (SF-295): > 100 µM (inactive); GI50 (HT-29): > 100 µM (inactive); GI50 (M14): > 100 µM (inactive); GI50 (SR): > 100 µM (inactive)

Q: With `CC(C)(C)c1ccc2c(c1)S(=O)(=O)Nc1ccc(Cl)cc1NS(=O)(=O)c1cc(C(C)(C)C)ccc1OCCOCCOCCO2` as the compound, how does the GI50 (Malme-3M) read?
A: The GI50 was 27.4 µM (inactive).

Q: What about the GI50 (NCI-H23) of the same compound?
A: The GI50 was 32.4 µM (inactive).

Q: What about the GI50 (786-0) of the same compound?
A: The GI50 was 87.3 µM (inactive).

Q: And the GI50 (NCI-H226)?
A: Its GI50 is 57.9 µM (inactive).

Q: What about the GI50 (SK-MEL-2) of the same compound?
A: Its GI50 is 45.6 µM (inactive).

Q: And the GI50 (SK-OV-3)?
A: The GI50 was 33 µM (inactive).

Q: And the GI50 (HCT-15)?
A: The GI50 was over 100 µM.

Q: What about the GI50 (EKVX) of the same compound?
A: The GI50 was 79.6 µM (inactive).

Q: And the GI50 (SK-MEL-28)?
A: Its GI50 is > 100 µM (inactive).

Q: And the GI50 (OVCAR-3)?
A: The GI50 was 50.6 µM (inactive).

Q: What about the GI50 (A549) of the same compound?
A: Its GI50 is 25.1 µM (inactive).

Q: And the GI50 (KM12)?
A: The GI50 was 75 µM (inactive).

Q: And the GI50 (SF-295)?
A: Its GI50 is 21.6 µM (inactive).

Q: And the GI50 (HT-29)?
A: Its GI50 is 99.3 µM (inactive).

Q: And the GI50 (M14)?
A: The GI50 was 81.7 µM (inactive).
